We go through 8 compounds from patent publication US9221795B2, “Phosphatidylinositol 3-kinase inhibitors” (Gilead Sciences, Inc., priority 2013, dated 2015).

pEC50, pIC50: −log10 of the molar value.

The target of one series is PI3Kδ (Homo sapiens (Human), UniProt O00329). As to the kind of experiment: Enzymatic activity of PI3K isoforms, TR-FRET assay (PI3Kδ). The series is classed as biochemical. Particulars: 2× Km ATP, geometric mean if more than one value. The method in brief: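 Recombinant heterodimeric PI3Kβ or PI3Kδ (25-50 pM) was run with 2 μM PIP2 and 2× Km ATP (75-500 μM) at pH 7.4, for 30 min at 25° C. PIP3 formation was detected by TR-FRET displacement of labeled PIP3 from Eu-GRP-1. IC50 values in nM come from four-parameter fits, as geometric means.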
Chain of PI3Kδ (O00329 whole entry, canonical isoform): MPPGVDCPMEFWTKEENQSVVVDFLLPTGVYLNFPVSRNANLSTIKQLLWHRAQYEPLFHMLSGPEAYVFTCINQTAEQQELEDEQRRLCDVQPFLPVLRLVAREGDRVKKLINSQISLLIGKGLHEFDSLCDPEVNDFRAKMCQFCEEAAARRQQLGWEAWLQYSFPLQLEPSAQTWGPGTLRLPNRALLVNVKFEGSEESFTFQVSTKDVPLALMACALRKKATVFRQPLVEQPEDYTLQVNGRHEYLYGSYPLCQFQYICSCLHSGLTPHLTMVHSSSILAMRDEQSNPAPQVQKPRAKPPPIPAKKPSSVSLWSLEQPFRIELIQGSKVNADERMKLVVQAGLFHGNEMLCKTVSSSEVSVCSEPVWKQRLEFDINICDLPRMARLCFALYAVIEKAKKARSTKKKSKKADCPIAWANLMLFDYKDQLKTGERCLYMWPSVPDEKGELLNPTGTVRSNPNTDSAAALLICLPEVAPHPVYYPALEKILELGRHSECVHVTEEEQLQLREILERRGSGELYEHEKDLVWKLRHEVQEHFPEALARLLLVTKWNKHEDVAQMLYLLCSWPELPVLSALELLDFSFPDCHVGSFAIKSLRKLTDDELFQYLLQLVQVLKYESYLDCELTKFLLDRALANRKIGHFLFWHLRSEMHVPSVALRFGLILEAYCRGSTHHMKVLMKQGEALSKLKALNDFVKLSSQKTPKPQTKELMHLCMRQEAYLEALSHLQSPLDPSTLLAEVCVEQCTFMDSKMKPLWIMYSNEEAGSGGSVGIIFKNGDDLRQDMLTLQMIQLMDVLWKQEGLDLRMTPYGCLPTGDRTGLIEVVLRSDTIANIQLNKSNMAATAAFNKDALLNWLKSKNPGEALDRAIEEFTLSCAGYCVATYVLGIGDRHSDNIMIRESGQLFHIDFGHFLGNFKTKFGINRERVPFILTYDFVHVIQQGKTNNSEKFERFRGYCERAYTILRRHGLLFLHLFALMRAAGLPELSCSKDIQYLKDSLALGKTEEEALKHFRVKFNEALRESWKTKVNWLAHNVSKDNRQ
Chain of PI3Kδ (P27986 whole entry partner, canonical isoform): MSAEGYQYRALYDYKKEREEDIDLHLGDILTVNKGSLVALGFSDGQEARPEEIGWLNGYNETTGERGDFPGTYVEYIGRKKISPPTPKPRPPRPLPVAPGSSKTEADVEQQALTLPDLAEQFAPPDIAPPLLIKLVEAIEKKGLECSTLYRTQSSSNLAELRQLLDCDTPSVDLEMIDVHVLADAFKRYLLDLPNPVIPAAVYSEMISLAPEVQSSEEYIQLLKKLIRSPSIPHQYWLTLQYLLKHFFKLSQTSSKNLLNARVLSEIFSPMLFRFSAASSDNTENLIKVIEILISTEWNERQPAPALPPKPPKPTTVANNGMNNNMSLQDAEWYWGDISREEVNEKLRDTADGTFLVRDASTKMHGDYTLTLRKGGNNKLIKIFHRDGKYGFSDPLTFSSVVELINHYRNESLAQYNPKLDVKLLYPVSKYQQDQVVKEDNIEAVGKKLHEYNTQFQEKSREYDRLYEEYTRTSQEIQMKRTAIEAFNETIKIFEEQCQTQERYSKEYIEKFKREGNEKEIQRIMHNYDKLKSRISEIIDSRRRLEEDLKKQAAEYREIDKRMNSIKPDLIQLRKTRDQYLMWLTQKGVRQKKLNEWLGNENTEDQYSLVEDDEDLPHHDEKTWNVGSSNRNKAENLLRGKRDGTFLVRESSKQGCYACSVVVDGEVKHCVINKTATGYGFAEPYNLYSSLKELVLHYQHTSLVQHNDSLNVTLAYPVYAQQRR
A general note: In TR-FRET formats the signal depends on donor and acceptor labels being close together.

The next series relates to basophils. Put plainly: Basophil activation in human whole blood (Flow2 CAST kit, CD63 flow cytometry). The series is classed as cell-based. To be noted: Homo sapiens, human whole blood, basophils activated with anti-FcεRI mAb or fMLP, percent CD63 positive cells. On the technique in general: Flow cytometry measures light scatter and fluorescence of single cells or particles in a stream.

Series [1] has as its system cryopreserved human hepatocytes. Put plainly: Hepatocyte stability (parent drug disappearance in cryopreserved hepatocytes). The series is classed as in vitro ADME. Particulars: human hepatocytes, 2 μM substrate, 37° C. The essentials: (§1)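 Test article at 2 μM incubated in duplicate with 1 million hepatocytes/mL at 37 °C, 5% CO2, humidified. Parent loss tracked by LC/MS at 0, 1, 2 and 4 h, giving half-life (t1/2) in hours.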

A further series has as its target PI3Kβ (Homo sapiens (Human), UniProt P42338). Put plainly: Enzymatic activity of PI3K isoforms, TR-FRET assay (PI3Kβ). The series is classed as biochemical. Particulars: 2× Km ATP, geometric mean if more than one value. The method, then:
Enzymatic activity of the class I PI3K isoforms in the presence of the compounds of Table 1 and Compounds X, Y and Z was measured using a time-resolved fluorescence resonance energy transfer (TR-FRET) assay. The TR-FRET assay was used to monitor formation of the product 3,4,5-inositol triphosphate molecule (PIP3) as it competed with fluorescently labeled PIP3 for binding to the GRP-1 pleckstrin homology domain protein. An increase in […] product results in a decrease in TR-FRET signal as the labeled fluorophore is displaced from the GRP-1 protein binding site.
Class I PI3K isoforms were expressed and purified as heterodimeric recombinant proteins. All assay reagents and buffers for the TR-FRET assay were purchased from Millipore. PI3K isoforms were assayed under initial rate conditions in the presence of 25 mM Hepes (pH 7.4), and 2× Km ATP (75-500 μM), 2 μM PIP2, 5% glycerol, 5 mM MgCl2, 50 mM NaCl, 0.05% (v/v) Chaps, 1 mM dithiothreitol, 1% (v/v) DMSO at the following concentrations for each isoforms: PI3Kα, PI3Kβ, and PI3Kδ between 25 and 50 pM, and PI3Kγ at 2 nM. After an assay reaction time of 30 minutes at 25° C., reactions were terminated with a final concentration of 10 mM EDTA, 10 nM labeled-PIP3, and 35 nM Europium labeled GRP-1 detector protein before reading TR-FRET on an Envision plate reader (Ex: 340 nm; Em: 615/665 nm; […] delay and 500 μs read window).
Data were normalized based on positive ([…] wortmanin) and negative (DMSO) controls. α, β, δ, and γ IC50 values were calculated from the fit of the dose-response curves to a four-parameter equation. All IC50 values represent geometric mean values if more than one value was obtained. IC50 values were reported in units of nM.

Series [2] in a line: Hepatocyte stability (parent drug disappearance in cryopreserved hepatocytes). To be noted: human, cryopreserved human hepatocytes, 2 μM substrate, 37° C.; Table 2a. It counts as in vitro ADME, human. The method in brief:
as §1

Chain of PI3Kβ (P42338 whole entry, the tested form may be a part, canonical isoform): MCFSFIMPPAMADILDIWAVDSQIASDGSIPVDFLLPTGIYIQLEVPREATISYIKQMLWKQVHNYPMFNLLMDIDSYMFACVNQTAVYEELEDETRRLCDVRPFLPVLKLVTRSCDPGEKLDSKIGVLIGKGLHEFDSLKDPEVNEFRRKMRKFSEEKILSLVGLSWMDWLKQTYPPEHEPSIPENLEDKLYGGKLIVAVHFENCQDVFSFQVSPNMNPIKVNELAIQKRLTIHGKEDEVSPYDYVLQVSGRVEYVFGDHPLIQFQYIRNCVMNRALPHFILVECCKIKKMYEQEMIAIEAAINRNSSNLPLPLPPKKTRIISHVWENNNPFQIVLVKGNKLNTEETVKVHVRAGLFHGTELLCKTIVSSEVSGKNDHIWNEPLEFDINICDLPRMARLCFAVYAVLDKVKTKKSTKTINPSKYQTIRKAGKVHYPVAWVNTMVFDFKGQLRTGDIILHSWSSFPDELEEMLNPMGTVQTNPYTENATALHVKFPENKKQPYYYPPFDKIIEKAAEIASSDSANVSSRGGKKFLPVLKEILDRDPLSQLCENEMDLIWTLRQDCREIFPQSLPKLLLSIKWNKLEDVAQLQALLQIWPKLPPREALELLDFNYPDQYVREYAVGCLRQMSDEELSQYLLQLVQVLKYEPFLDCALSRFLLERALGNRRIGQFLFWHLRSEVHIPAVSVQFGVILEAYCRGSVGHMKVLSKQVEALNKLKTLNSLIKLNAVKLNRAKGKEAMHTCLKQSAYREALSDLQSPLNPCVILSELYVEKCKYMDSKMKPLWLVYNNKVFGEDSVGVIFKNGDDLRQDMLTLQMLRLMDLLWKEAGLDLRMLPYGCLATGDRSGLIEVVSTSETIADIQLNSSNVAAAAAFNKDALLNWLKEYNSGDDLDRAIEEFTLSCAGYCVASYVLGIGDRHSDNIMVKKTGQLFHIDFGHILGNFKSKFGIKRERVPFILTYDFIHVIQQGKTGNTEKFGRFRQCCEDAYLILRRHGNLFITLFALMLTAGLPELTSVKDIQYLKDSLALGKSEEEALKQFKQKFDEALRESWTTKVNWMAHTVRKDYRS
Chain of PI3Kβ (P27986 whole entry partner, the tested form may be a part, canonical isoform): as the sequence (P27986 whole entry partner, canonical isoform) above

A word on the pIC50: it is the negative decadic logarithm of the IC50, by convention in mol/L. Lower therefore signals a high IC50. The pEC50 is the negative decadic logarithm of the EC50, by convention in mol/L. Turning to `Cc1c(F)cncc1-n1c([C@H](C)Nc2nc(N)nc(N)c2C#N)nc2cccc(Cl)c2c1=O` (atropisomer, axis not shown) [Compound 47, (S)-2,4-diamino-6-(1-(5-chloro-3-(5-fluoro-4-methylpyridin-3-yl)-4-oxo-3,4-dihydroquinazolin-2-yl)ethylamino)pyrimidine-5-carbonitrile], the pIC50 on PI3Kδ is 9.30. For the same compound, the pEC50 in the series with basophils (class symbol) was > 9.00; in the series with basophils (geometric mean), 9.40. Moreover, the values for the t1/2 result in series [1] (class symbol) and in series [1] (Table 3) were “***** (***** = >10 h)” and >10 h, respectively.
For orientation: half-life means how long it takes for the measured level to halve. `Cc1cc(N)ncc1-n1c([C@H](C)Nc2nc(N)nc(N)c2C#N)nc2c(Cl)ccc(Cl)c2c1=O` (atropisomer, axis not shown) [Compound 96, (S)-2,4-diamino-6-((1-(3-(6-amino-4-methylpyridin-3-yl)-5,8-dichloro-4-oxo-3,4-dihydroquinazolin-2-yl)ethyl)amino)pyrimidine-5-carbonitrile]: the pIC50 against PI3Kδ is 9.00; at PI3Kβ, 8.52. Moreover, in series [2], the half-life at 2 μM is 4 h.
For `C[C@H](Nc1nc(N)nc(N)c1C#N)c1nc2c(Cl)cc(F)cc2c(=O)n1-c1ccc(N)nc1` [Compound 82, (S)-2,4-diamino-6-((1-(3-(6-aminopyridin-3-yl)-8-chloro-6-fluoro-4-oxo-3,4-dihydroquinazolin-2-yl)ethyl)amino)pyrimidine-5-carbonitrile], in that order: 8.30, 8.30 and > 10 h.
The like results for `C[C@H](Nc1nc(N)nc(N)c1C#N)c1nc2c(Cl)ccc(Cl)c2c(=O)n1-c1ccc(N)nc1` [Compound 84, (S)-2,4-diamino-6-((1-(3-(6-aminopyridin-3-yl)-5,8-dichloro-4-oxo-3,4-dihydroquinazolin-2-yl)ethyl)amino)pyrimidine-5-carbonitrile] were, in that order, 9.30, 9.00 and 10 h.
As to `C[C@H](Nc1nc(N)nc(N)c1Cl)c1nc2cccc(Cl)c2c(=O)n1-c1ccc(N)nc1` [Compound 85, (S)-3-(6-aminopyridin-3-yl)-5-chloro-2-(1-((2,6-diamino-5-chloropyrimidin-4-yl)amino)ethyl)quinazolin-4(3H)-one], the values for the negative logarithm of the IC50 (pIC50) at PI3Kδ and against PI3Kβ were 8.52 and 8.05, respectively. For the same compound, in series [2], the half-life at 2 μM is > 10 h.
For `CC[C@H](Nc1nc(N)nc(N)c1C#N)c1nc2cccc(Cl)c2c(=O)n1-c1ccc(N)nc1` [Compound 87, (S)-2,4-diamino-6-((1-(3-(6-aminopyridin-3-yl)-5-chloro-4-oxo-3,4-dihydroquinazolin-2-yl)propyl)amino)pyrimidine-5-carbonitrile], the pIC50 against PI3Kδ was 9.22; against PI3Kβ, 9.10. Also, in series [2], the half-life at 2 μM was > 10 h.
On to `C[C@H](Nc1nc(N)nc(N)c1Cl)c1nc2c(F)ccc(Cl)c2c(=O)n1-c1ccc(N)nc1` [Compound 88, (S)-3-(6-aminopyridin-3-yl)-5-chloro-2-(1-((2,6-diamino-5-chloropyrimidin-4-yl)amino)ethyl)-8-fluoroquinazolin-4(3H)-one], for which the pIC50 against PI3Kδ was 8.22; on PI3Kβ, 7.96. Further, the half-life at 2 μM in series [2] was > 10 h.
For `C[C@H](Nc1nc(N)nc(N)c1C#N)c1nc2cccc(Cl)c2c(=O)n1-c1ccc(N)nc1` [Compound 97, (S)-2,4-diamino-6-((1-(3-(6-aminopyridin-3-yl)-5-chloro-4-oxo-3,4-dihydroquinazolin-2-yl)ethyl)amino)pyrimidine-5-carbonitrile], in that order: 9.10, 9.15 and > 10 h.
